Test results reported in patent US8318762B2, “Pyrazolospiroketone acetyl-CoA carboxylase inhibitors” (Pfizer Inc., priority 2008, dated 2012).

Molecular target: T1, recombinant human ACC2 (Homo sapiens, UniProt O00763)
T1 construct: a full length Cytomax clone of ACC2 was purchased from Cambridge Bioscience Limited; made in house; host or cells: CHO cells (tetracycline induction, pcDNA5 FRT TO-TOPO); purified on a Softlink Soft Release Avidin column
Experiment: Measurement of human ACC2 inhibition (recombinant hACC2 Transcreener ADP detection FP assay)
Assay type: biochemical
Details: not given
Protocol: [3] Measurement of human ACC2 inhibition. Human ACC2 inhibition was measured using purified recombinant human ACC2 (hrACC2). […] The ACC2 was expressed in CHO cells by tetracycline induction and harvested in 5 liters of DMEM/F12 with glutamine, biotin, hygromycin and blasticidin with 1 μg/mL tetracycline (Invitrogen, Carlsbad, Calif.). The conditioned medium containing ACC2 was then applied to a Softlink Soft Release Avidin column (Promega, Madison, Wis.) and eluted with 5 mM biotin. […] The purified ACC2 was dialyzed in 50 mM Tris, 200 mM NaCl, 4 mM DTT, 2 mM EDTA, and 5% glycerol. […] The final conditions for the assay were 50 mM HEPES, pH7.5, 5 mM MgCl2, 5 mM tripotassium citrate, 2 mM DTT, 0.5 mg/mL BSA, 30 μM acetyl-CoA, 50 μM ATP, and 8 mM KHCO3. Typically, a 10 μl reaction was run for 1 hour at room temperature, and 10 μl of Transcreener stop and detect buffer was added and incubated for an additional 1 hour.

T1 sequence (O00763 whole entry): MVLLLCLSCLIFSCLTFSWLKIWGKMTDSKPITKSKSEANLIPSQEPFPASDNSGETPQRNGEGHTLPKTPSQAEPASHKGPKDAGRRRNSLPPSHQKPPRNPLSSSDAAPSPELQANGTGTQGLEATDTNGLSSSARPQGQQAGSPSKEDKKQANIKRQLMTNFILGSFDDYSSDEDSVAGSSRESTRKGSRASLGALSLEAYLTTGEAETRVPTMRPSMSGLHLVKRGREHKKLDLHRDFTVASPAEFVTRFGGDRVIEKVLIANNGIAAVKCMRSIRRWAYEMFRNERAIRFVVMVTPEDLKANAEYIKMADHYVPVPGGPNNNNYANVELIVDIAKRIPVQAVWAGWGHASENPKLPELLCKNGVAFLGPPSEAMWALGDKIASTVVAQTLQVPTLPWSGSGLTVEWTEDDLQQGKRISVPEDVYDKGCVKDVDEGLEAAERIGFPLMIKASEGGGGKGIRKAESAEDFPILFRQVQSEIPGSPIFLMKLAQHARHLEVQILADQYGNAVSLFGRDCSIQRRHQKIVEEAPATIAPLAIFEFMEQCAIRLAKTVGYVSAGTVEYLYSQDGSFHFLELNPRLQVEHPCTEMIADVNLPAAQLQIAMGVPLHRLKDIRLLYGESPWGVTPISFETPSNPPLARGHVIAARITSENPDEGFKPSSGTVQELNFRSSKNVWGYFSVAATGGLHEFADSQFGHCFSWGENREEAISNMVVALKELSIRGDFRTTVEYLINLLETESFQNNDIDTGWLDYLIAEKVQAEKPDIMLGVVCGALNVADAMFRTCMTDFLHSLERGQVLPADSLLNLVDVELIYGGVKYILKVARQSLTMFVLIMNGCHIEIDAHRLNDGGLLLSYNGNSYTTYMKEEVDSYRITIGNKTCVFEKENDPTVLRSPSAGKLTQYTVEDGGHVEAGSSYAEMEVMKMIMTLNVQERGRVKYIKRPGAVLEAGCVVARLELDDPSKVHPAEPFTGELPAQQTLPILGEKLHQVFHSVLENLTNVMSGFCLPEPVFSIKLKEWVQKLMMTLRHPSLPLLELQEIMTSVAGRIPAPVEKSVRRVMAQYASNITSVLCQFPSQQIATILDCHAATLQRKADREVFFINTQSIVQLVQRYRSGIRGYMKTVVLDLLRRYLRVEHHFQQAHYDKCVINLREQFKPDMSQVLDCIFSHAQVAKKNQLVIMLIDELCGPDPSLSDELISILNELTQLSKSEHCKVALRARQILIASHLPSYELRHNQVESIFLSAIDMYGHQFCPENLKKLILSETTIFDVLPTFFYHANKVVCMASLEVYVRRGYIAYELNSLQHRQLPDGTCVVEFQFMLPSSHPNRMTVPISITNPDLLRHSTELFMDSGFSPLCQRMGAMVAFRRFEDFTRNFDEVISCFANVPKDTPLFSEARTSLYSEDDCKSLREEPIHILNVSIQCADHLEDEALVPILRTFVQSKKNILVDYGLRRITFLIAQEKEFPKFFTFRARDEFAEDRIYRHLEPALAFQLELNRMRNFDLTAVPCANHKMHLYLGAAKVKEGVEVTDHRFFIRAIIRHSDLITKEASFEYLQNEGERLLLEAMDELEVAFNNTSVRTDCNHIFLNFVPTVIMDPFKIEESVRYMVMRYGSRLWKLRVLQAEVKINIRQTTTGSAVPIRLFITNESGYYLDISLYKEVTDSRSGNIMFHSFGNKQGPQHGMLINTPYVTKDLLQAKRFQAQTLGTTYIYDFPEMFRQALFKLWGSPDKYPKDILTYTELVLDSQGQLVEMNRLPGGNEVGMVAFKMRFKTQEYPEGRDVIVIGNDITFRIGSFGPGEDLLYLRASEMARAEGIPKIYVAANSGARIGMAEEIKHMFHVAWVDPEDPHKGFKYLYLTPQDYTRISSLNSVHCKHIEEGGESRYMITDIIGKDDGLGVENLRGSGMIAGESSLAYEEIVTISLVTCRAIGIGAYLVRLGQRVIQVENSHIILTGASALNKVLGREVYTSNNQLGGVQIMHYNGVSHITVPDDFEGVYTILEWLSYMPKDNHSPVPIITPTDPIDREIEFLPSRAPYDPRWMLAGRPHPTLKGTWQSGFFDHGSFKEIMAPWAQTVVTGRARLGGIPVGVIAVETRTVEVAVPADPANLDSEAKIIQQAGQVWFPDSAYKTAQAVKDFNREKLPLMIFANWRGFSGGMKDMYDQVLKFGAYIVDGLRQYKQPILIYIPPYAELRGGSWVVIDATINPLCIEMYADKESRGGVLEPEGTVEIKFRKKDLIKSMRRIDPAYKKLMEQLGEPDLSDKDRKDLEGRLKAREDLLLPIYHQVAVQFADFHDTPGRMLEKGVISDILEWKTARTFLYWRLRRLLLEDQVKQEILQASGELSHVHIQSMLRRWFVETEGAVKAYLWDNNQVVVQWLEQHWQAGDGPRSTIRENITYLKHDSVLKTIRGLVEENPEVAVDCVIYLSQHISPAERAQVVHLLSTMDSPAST

SMILES	IC50 [nM]
Cc1cc(C(=O)N2CCC3(CC2)CC(=O)c2nn(C)cc2O3)cc2cn[nH]c12 [1.029]	629

Same assay, conditions: recombinant hACC2 transcreener assay; read-out: rhACC2 IC50

SMILES	IC50 [nM]
Cc1n[nH]c2c(C)cc(C(=O)N3CCC4(CC3)CC(=O)c3nn(C(C)C)cc3O4)cc12 [1.002]	8
CCCn1cc2c(n1)C(=O)CC1(CCN(C(=O)c3cc(C)c4[nH]nc(C)c4c3)CC1)O2 [1.004]	20
Cc1n[nH]c2c(C)cc(C(=O)N3CCC4(CC3)CC(=O)c3nn(C)c(C)c3O4)cc12 [1.005]	117
Cc1n[nH]c2c(C)cc(C(=O)N3CCC4(CC3)CC(=O)c3nn(C)cc3O4)cc12 [1.006]	80
CCc1c2c(nn1C)C(=O)CC1(CCN(C(=O)c3cc(C)c4[nH]nc(C)c4c3)CC1)O2 [1.007]	189
Cc1n[nH]c2c(C)cc(C(=O)N3CCC4(CC3)CC(=O)c3nn(C5CCCCC5)cc3O4)cc12 [1.008]	21
Cc1n[nH]c2c(C)cc(C(=O)N3CCC4(CC3)CC(=O)c3nn(C5CCCC5)cc3O4)cc12 [1.009]	4
Cc1n[nH]c2c(C)cc(C(=O)N3CCC4(CC3)CC(=O)c3nn(C5CCC5)cc3O4)cc12 [1.010]	4
Cc1n[nH]c2c(C)cc(C(=O)N3CCC4(CC3)CC(=O)c3nn(C(C)(C)C)c(C)c3O4)cc12 [1.011]	15
Cc1n[nH]c2c(C)cc(C(=O)N3CCC4(CC3)CC(=O)c3nn(C(C)C)c(C)c3O4)cc12 [1.013]	8
Cc1n[nH]c2c(C)cc(C(=O)N3CCC4(CC3)CC(=O)c3nn(C5CC5)c(C)c3O4)cc12 [1.014]	9
Cc1n[nH]c2c(C)cc(C(=O)N3CCC4(CC3)CC(=O)c3nn(C5CCOC5)cc3O4)cc12 (centres unmarked) [1.016]	22
CCc1n[nH]c2c(C)cc(C(=O)N3CCC4(CC3)CC(=O)c3nn(C(C)C)cc3O4)cc12 [1.017]	3
CCOc1cc(C(=O)N2CCC3(CC2)CC(=O)c2nn(CC)c(C)c2O3)cc2c(CC)n[nH]c12 [1.018]	34
CCc1n[nH]c2c(C)cc(C(=O)N3CCC4(CC3)CC(=O)c3nn(CC)cc3O4)cc12 [1.019]	18
CCc1n[nH]c2c(C)cc(C(=O)N3CCC4(CC3)CC(=O)c3nn(C(C)(C)C)cc3O4)cc12 [1.020]	3
CCn1cc2c(n1)C(=O)CC1(CCN(C(=O)c3cc(C)c4[nH]ncc4c3)CC1)O2 [1.025]	54
COc1cc(-n2nc3c(c2C)OC2(CCN(C(=O)c4cc(C)c5[nH]ncc5c4)CC2)CC3=O)ccc1C#N [1.028]	127
Cc1cc(C(=O)N2CCC3(CC2)CC(=O)c2nn(C)c(C)c2O3)cc2cn[nH]c12 [1.030]	376
Cc1cc(C(=O)N2CCC3(CC2)CC(=O)c2nn(Cc4ccccc4)c(C)c2O3)cc2cn[nH]c12 [1.033]	487
CCc1c2c(nn1C)C(=O)CC1(CCN(C(=O)c3cc(C)c4[nH]ncc4c3)CC1)O2 [1.035]	367
Cc1cc(C(=O)N2CCC3(CC2)CC(=O)c2nn(C4CCCCC4)cc2O3)cc2cn[nH]c12 [1.037]	60

SMILES	IC50 [nM]
Cc1cc(C(=O)N2CCC3(CC2)CC(=O)c2nn(C(C)C)c(C)c2O3)cc2cn[nH]c12 [1.040]	15
Cc1cc(C(=O)N2CCC3(CC2)CC(=O)c2nn(C4CCOC4)c(C)c2O3)cc2cn[nH]c12 (centres unmarked) [1.041]	46
Cc1cc(C(=O)N2CCC3(CC2)CC(=O)c2nn(C(C)(C)C)c(C)c2O3)cc2cn[nH]c12 [1.043]	43
CCc1n[nH]c2c(OC)cc(C(=O)N3CCC4(CC3)CC(=O)c3nn(C(C)C)cc3O4)cc12 [1.044]	5
CCc1n[nH]c2c(OC)cc(C(=O)N3CCC4(CC3)CC(=O)c3nn(CC)c(C)c3O4)cc12 [1.045]	22
CCc1n[nH]c2c(OC)cc(C(=O)N3CCC4(CC3)CC(=O)c3nn(CC)cc3O4)cc12 [1.046]	29
CCc1n[nH]c2c(OC)cc(C(=O)N3CCC4(CC3)CC(=O)c3nn(C(C)(C)C)cc3O4)cc12 [1.047]	2
CCc1n[nH]c2c(OC)cc(C(=O)N3CCC4(CC3)CC(=O)c3nn(C5CCCCC5)cc3O4)cc12 [1.048]	18
CCc1n[nH]c2c(OC)cc(C(=O)N3CCC4(CC3)CC(=O)c3nn(C5CCCC5)cc3O4)cc12 [1.049]	7
CCc1n[nH]c2c(OC)cc(C(=O)N3CCC4(CC3)CC(=O)c3nn(C5CCC5)cc3O4)cc12 [1.050]	5
COc1cc(C(=O)N2CCC3(CC2)CC(=O)c2nn(C(C)C)cc2O3)cc2cn[nH]c12 [1.051]	17
CCn1nc2c(c1C)OC1(CCN(C(=O)c3cc(OC)c4[nH]ncc4c3)CC1)CC2=O [1.052]	33
CCn1cc2c(n1)C(=O)CC1(CCN(C(=O)c3cc(OC)c4[nH]ncc4c3)CC1)O2 [1.053]	62
COc1cc(C(=O)N2CCC3(CC2)CC(=O)c2nn(C(C)(C)C)c(C)c2O3)cc2cn[nH]c12 [1.054]	29
COc1cc(C(=O)N2CCC3(CC2)CC(=O)c2nn(C(C)C)c(C)c2O3)cc2cn[nH]c12 [1.055]	10
CCc1cc(C(=O)N2CCC3(CC2)CC(=O)c2nn(CC)c(C)c2O3)cc2cn[nH]c12 [1.056]	35
CCc1cc(C(=O)N2CCC3(CC2)CC(=O)c2nn(CC)cc2O3)cc2cn[nH]c12 [1.057]	40
CCc1cc(C(=O)N2CCC3(CC2)CC(=O)c2nn(C)cc2O3)cc2cn[nH]c12 [1.059]	210
CCc1cc(C(=O)N2CCC3(CC2)CC(=O)c2nn(C(C)(C)C)cc2O3)cc2cn[nH]c12 [1.060]	6
CCn1nc2c(c1C)OC1(CCN(C(=O)c3cc(Cl)c4[nH]ncc4c3)CC1)CC2=O [1.061]	54
CCn1cc2c(n1)C(=O)CC1(CCN(C(=O)c3cc(Cl)c4[nH]ncc4c3)CC1)O2 [1.062]	43
Cc1c2c(nn1C)C(=O)CC1(CCN(C(=O)c3cc(Cl)c4[nH]ncc4c3)CC1)O2 [1.063]	137

Other lines, results leading:

IC50 [nM]	SMILES
8	CC(C)(C)n1cc2c(n1)C(=O)CC1(CCN(C(=O)c3cc(Cl)c4[nH]ncc4c3)CC1)O2 [1.065]
26	CC(C)n1cc2c(n1)C(=O)CC1(CCN(C(=O)c3cc(Cl)c4[nH]ncc4c3)CC1)O2 [1.066]
50	CC(C)n1cc2c(n1)C(=O)CC1(CCN(C(=O)c3ccc4[nH]ncc4c3)CC1)O2 [1.067]
84	CCn1nc2c(c1C)OC1(CCN(C(=O)c3ccc4[nH]ncc4c3)CC1)CC2=O [1.068]
197	CCn1cc2c(n1)C(=O)CC1(CCN(C(=O)c3ccc4[nH]ncc4c3)CC1)O2 [1.069]
713	Cc1c2c(nn1C)C(=O)CC1(CCN(C(=O)c3ccc4[nH]ncc4c3)CC1)O2 [1.070]
773	Cn1cc2c(n1)C(=O)CC1(CCN(C(=O)c3ccc4[nH]ncc4c3)CC1)O2 [1.071]
61	Cc1c2c(nn1C(C)(C)C)C(=O)CC1(CCN(C(=O)c3ccc4[nH]ncc4c3)CC1)O2 [1.072]
35	Cc1c2c(nn1C(C)C)C(=O)CC1(CCN(C(=O)c3ccc4[nH]ncc4c3)CC1)O2 [1.073]
6	COc1cc(C(=O)N2CCC3(CC2)CC(=O)c2nn(C(C)C)cc2O3)cc2c(C)n[nH]c12 [1.075]
2	COc1cc(C(=O)N2CCC3(CC2)CC(=O)c2nn(C(C)(C)C)cc2O3)cc2c(C)n[nH]c12 [1.076]
15	CCn1nc2c(c1C)OC1(CCN(C(=O)c3cc(OC)c4[nH]nc(C)c4c3)CC1)CC2=O [1.077]
4	COc1cc(C(=O)N2CCC3(CC2)CC(=O)c2nn(C(C)C)c(C)c2O3)cc2c(C)n[nH]c12 [1.078]
12	CCn1cc2c(n1)C(=O)CC1(CCN(C(=O)c3cc(OC)c4[nH]nc(C)c4c3)CC1)O2 [1.079]
36	CCn1nc2c(c1C)OC1(CCN(C(=O)c3ccc4[nH]nc(C)c4c3)CC1)CC2=O [1.080]
10	Cc1n[nH]c2ccc(C(=O)N3CCC4(CC3)CC(=O)c3nn(C(C)C)cc3O4)cc12 [1.081]
53	CCCn1cc2c(n1)C(=O)CC1(CCN(C(=O)c3ccc4[nH]nc(C)c4c3)CC1)O2 [1.082]
43	CCn1cc2c(n1)C(=O)CC1(CCN(C(=O)c3ccc4[nH]nc(C)c4c3)CC1)O2 [1.083]
403	Cc1n[nH]c2ccc(C(=O)N3CCC4(CC3)CC(=O)c3nn(C)cc3O4)cc12 [1.085]
3	Cc1n[nH]c2ccc(C(=O)N3CCC4(CC3)CC(=O)c3nn(C(C)(C)C)cc3O4)cc12 [1.086]
135	Cc1n[nH]c2ccc(C(=O)N3CCC4(CC3)CC(=O)c3nn(C5CCCCC5)cc3O4)cc12 [1.087]
16	Cc1n[nH]c2ccc(C(=O)N3CCC4(CC3)CC(=O)c3nn(C5CCCC5)cc3O4)cc12 [1.088]
22	Cc1n[nH]c2ccc(C(=O)N3CCC4(CC3)CC(=O)c3nn(C5CCC5)cc3O4)cc12 [1.089]
23	Cc1n[nH]c2ccc(C(=O)N3CCC4(CC3)CC(=O)c3nn(C(C)(C)C)c(C)c3O4)cc12 [1.090]
15	Cc1n[nH]c2ccc(C(=O)N3CCC4(CC3)CC(=O)c3nn(C(C)C)c(C)c3O4)cc12 [1.091]
18	CCc1n[nH]c2ccc(C(=O)N3CCC4(CC3)CC(=O)c3nn(CC)cc3O4)cc12 [1.093]
397	CCc1n[nH]c2ccc(C(=O)N3CCC4(CC3)CC(=O)c3nn(C)cc3O4)cc12 [1.095]
12	CCc1n[nH]c2ccc(C(=O)N3CCC4(CC3)CC(=O)c3nn(C(C)(C)C)cc3O4)cc12 [1.096]
20	CCc1nn(C)c2c(OC)cc(C(=O)N3CCC4(CC3)CC(=O)c3nn(CC)cc3O4)cc12 [1.099]
